Assays:
E006AA cells [1] = assay: Cell death quantification, Trypan blue exclusion assay; assay type: cell-based, human; settings: combined treatment with DOC (24 hrs)
Protocol: (§1) Cell viability assay: PCa cells (5×10^4 cells/well) were seeded on 6-well cell culture plates and incubated with DOC (1-20 nM) for 24 hrs. Floating and attached cells were collected using trypsinization. Live and dead cells were counted under a light microscope using a trypan blue exclusion assay.

RC-77 T/E cells = assay: Cell death, DEVDase activity and CC expression in a second AA PCa cell line; assay type: cell-based, human; settings: both AA PCa cell lines; for CC expression / caspase-3 activity: DOC with or without inhibitor, 24 hrs; for cell death: not as effective as in CA PCa cells
Protocol: (§2) Immunoblotting: Immunoblotting was performed as described previously. Protein lysates were prepared using a lysis in NP-40 buffer (50 mM Tris-HCl pH 7.4, 150 mM NaCl, 1 mM EDTA, 1 mM EGTA, 1% NP-40) supplemented with protease and phosphatase inhibitor cocktail. Protein content was quantified using a micro BCA protein estimation kit (Thermo Scientific, Waltham, Mass.; Cat #23235). Protein samples were resolved on 4-20% Criterion gels, transferred on nitrocellulose membranes (BioRad, Hercules, Calif.) and subjected to immunoblotting. Membranes were blocked in 5% fat free dry milk (Blotto, Santa Cruz, Dallas, Tex.; Cat #sc-2324) prepared in PBS-T (Tween-20) and incubated overnight in primary antibodies (1:1000 dilution) at 4° C. with continuous shaking. After washing with PBS-T, membranes were incubated in HRP conjugated anti-mouse or anti-rabbit secondary antibody at room temperature for 1 hr. After washing with PBS-T, proteins were detected using Clarity chemiluminescent reagent (BioRad, Hercules, Calif.; Cat #1705061) and X-Ray films (ASI, Fort Lauderdale, Fla.; Cat #XR1570). Membranes were stripped using stripping buffer and probed with HRP conjugated beta-actin antibody to ensure equal loading of proteins.
as §1
(§3) Caspase-3 (DEVDase) activity assay: PCa cell lysates prepared in NP40 lysis buffer were incubated with DEVD-AFC (caspase-3 substrate) at 37° C. for 90 min in caspase activity assay buffer (50 mM HEPES pH 7.4, 150 mM NaCl, 1% CHAPS, 1 mM EDTA, 1 mM DTT, 50% glycerol). Fluorescence intensity was detected using a Synergy microplate reader at excitation and emission wavelengths of 400 nm and 508 nm, respectively. Arbitrary fluorescence units were normalized with protein content of cell lysates and represented as fold change compared to control groups.

E006AA hT xenografts = assay: Human PCa xenograft study; assay type: in vivo, SCID mice; settings: 3 weeks
Description: Human PCa xenograft study: SCID (C.B-Igh-1^b/IcrTac-Prkdc^[…]) mice (6 weeks old) were purchased from an in house colony maintained by Roswell Park Laboratory Animal Shared Resource. Animal protocols were approved by the Roswell Park Institutional Animal Care and Use Committee (IACUC protocol #1306M). E006AA hT cells (80% confluency) were harvested and live cells quantified. Harvested cells were washed and resuspended in serum-free DMEM/F-12 (1:1) mix. Four ×10^6 E006AA hT cells were mixed with Matrigel (1:1) and injected subcutaneously in the right and left flanks of each mouse. When xenograft tumors reached 5 mm in diameter (22 days post injection), mice were randomly divided into 6 groups of 4 mice. First group received 100 μl Neobee M5 oil (vehicle) and 100 μl normal saline each twice weekly. Second group received 100 μl Neobee M5 oil and DOC (6 mg/kg bw) twice weekly. Third group received 10058-F4 (20 mg/kg bw) and DOC (6 mg/kg bw) twice weekly. Fourth group received JSH-23 (3 mg/kg bw) and DOC (6 mg/kg bw) twice weekly. Fifth group received 10058-F4 (20 mg/kg bw) and normal saline twice weekly. Sixth group received JSH-23 (3 mg/kg bw) and normal saline twice weekly. All treatments were administered for 3 weeks. Mice were euthanized, tumors were excised and flash frozen in liquid nitrogen. The tissue lysates were used for caspase-3 activity and Western blotting of CC, cleaved PARP, and cleaved caspase-3 proteins.
as §2, §3

[2] = tested on: Nrf1 binding with CC promoter in E006AA cells; assay: Chromatin immunoprecipitation (ChIP) assay, Nrf1 binding with CC promoter; assay type: cell-based, human
Protocol: Chromatin immunoprecipitation (ChIP) assay: The association of Nrf1 transcription factor with CYCS promoter within the LNCaP and E006AA cells was detected using a chromatin immunoprecipitation (ChIP) Assay Kit (Millipore, Billerica, Mass.; Cat #17-295) according to the manufacturer's instructions. In brief, 1 million cells were fixed in formaldehyde for 15 min and chromatin was sheared using Bioruptor sonication device for 10 min in ice with 30 sec on/off cycle (Diagenode, Denville, N.J.). Ten μ1 sonicated samples (of 2 ml total volume) were separated as input. Chromatin was immunoprecipitated with 1.0 μg of Nrf1 or normal rabbit IgG (Santa Cruz Biotechnology) antibody at 4° C. overnight. Each sample (5 μl) was used as a template for PCR amplification and 20 μl of the 50 μl PCR product was loaded onto agarose gels. CYCS oligonucleotide sequence encompasses the CYCS promoter segment that includes the Nrf1 binding sites for PCR primers viz 5′-[…]-3′ [SEQ ID:7] and 5′-[…]-3′ [SEQ ID:8]. PCR mixtures were amplified for 1 cycle at 94° C. for 5 min followed by 35 cycles at 94° C. for 30 s, 55° C. for 30 s and 72° C. for 30 s, and then subjected to final elongation at 72° C. for 10 min. PCR products were run on 2% agarose gel and analyzed using ethidium bromide staining.

[3] = tested on: CC promoter activity in E006AA cells; assay: Cytochrome c (CYCS) promoter reporter (luciferase) assay; assay type: cell-based, human; settings: CYCS-Luc transfected cells, 24 hrs
Protocol: Cytochrome c (CYCS) promoter reporter assay: CYCS promoter reporter clone and empty pLightSwitch vector were purchased from SwitchGear Genomics, Menlo Park, Calif. (Cat #S721763). The reporter construct was prepared by cloning −1000 bp of CYCS promoter from the transcription initiation site. Plasmids were transformed in DH5a E. Coli strain and were isolated using a Zymo Plasmid MidiPrep kit (Zymo research, cat #D4200). The Nrf1 binding site in the p-CYCS-SwichGear-Luc construct was deleted using a QuickChange II XL site-directed mutagenesis kit (Agilent Technologies, Wilmington, Del. Cat #200521). LNCaP and E006AA cells were seeded in 96 well plates and transfected with either pLightSwitch empty vector or CYCS promoter reporter clones using a lipofectamine 3000 transfection kit (ThermoFisher Scientific, Waltham, Mass.). Cells were harvested after 48 hrs. Luciferase activity assay was performed using LightSwitch Assay Reagent (SwitchGear Genomics, Menlo Park, Calif. Cat #LS010).

E006AA cells [4] = assay: Mitochondrial ROS production, MitoSOX dye, flow cytometry; assay type: cell-based, human
[5] = in combination with DOC (6 mg/kg bw) twice weekly
[6] = inhibitor alone, 10058-F4 20 mg/kg bw or JSH-23 3 mg/kg bw twice weekly

| Compound | cell death (E006AA cells [1]) | CC expression (RC-77 T/E cells) | caspase-3 activity (RC-77 T/E cells) | cell death (RC-77 T/E cells) | CC expression in xenografts (E006AA hT xenografts; [5]) | PARP cleavage in xenografts (E006AA hT xenografts; [5]) | caspase-3 activation in xenografts (E006AA hT xenografts; [5]) | CC expression in xenografts (E006AA hT xenografts; [6]) | binding of Nrf1 to the CC promoter ([2]; agent alone) | binding of Nrf1 to the CC promoter ([2]; combined with DOC (24 hrs)) | CYCS promoter activity (luciferase) [3] | MitoROS production (E006AA cells [4]; agent alone) | MitoROS production (E006AA cells [4]; in combination with DOC) |
| --- | --- | --- | --- | --- | --- | --- | --- | --- | --- | --- | --- | --- | --- |
| Cc1ccc(NCCCc2ccccc2)c(N)c1 [NF-κB inhibitor, JSH-23] | enhanced cell death | induced CC expression | activated caspase-3 activity | enhanced cell death | further upregulated | PARP cleavage | caspase-3 activation | induced CC expression | enhanced binding of Nrf1 to the CC promoter | enhanced binding of Nrf1 to the CC promoter | increased the CYCS promoter activity | MitoROS production | MitoROS production |
| CCc1ccc(/C=C2/SC(=S)NC2=O)cc1 [c-Myc inhibitor, 10058-F4] | enhanced cell death | induced CC expression | activated caspase-3 activity | enhanced cell death | further upregulated | PARP cleavage | caspase-3 activation | induced CC expression | enhanced binding of Nrf1 to the CC promoter | enhanced binding of Nrf1 to the CC promoter | increased the CYCS promoter activity | – | – |
| bisperoxovanadium 5-hydroxipyridine [AKT activator] | enhanced cell death | – | – | – | – | – | – | – | enhanced binding of Nrf1 to the CC promoter | enhanced binding of Nrf1 to the CC promoter | increased the CYCS promoter activity | MitoROS production | MitoROS production |
